From patent US20250129070A1, “BIFUNCTIONAL ANDROGEN RECEPTOR COMPOUNDS” (priority 2023, published 2025) come the findings set out here.

For orientation: EC50 means the concentration giving half of the maximal effect. A lower EC50 goes with an effect from little substance.

The experiment relates to AR / CBP ternary complex. The experiment is described as follows: Ternary complex formation assay (sandwich ELISA, AR capture / CBP detection) in VCaP cell lysates. It counts as cell-based. The settings on record: 1.5 hours treatment, sandwich ELISA (AR capture, CBP or p300 detection). On the procedure: Preparation of Mouse Anti-AR Antibody Coated 96 Well Plates
Black MaxiSorp plates: coat with 50 μL of mouse 1/50 diluted AR antibody (Monoclonal Antibody (AR 441 from Thermo Fisher); diluted in phosphate buffered saline (PBS). Spin the liquid to the bottom of the wells, if necessary. Incubate overnight at 4° C. Next day, wash 3 times with 200 μL of TBST. Block with 200 μL of blocking buffer (5% BSA in TBST) at room temperature for 2 hours (BSA: A4503 or A2153 from Sigma). Wash plates 3 times with TBST. Plates are ready for lysates Preparation of dimerizer treated lysates
Culture cells in 96 wells at 50K VCaP cells/well for at least 3 days. Plate in 5% Omega charcoal stripped FBS in total volume of 200 uL. Treat with bifunctional for 1.5 hours by adding 1 μL of 200× stock in DMSO. Aspirate media/compound. Add and pipet-to-mix 70 μL of 1× AlphaLisa Lysis Buffer to each well (Perkin Elmer, AlphaLISA SureFire Ultra, diluted in water). Pipet up and down when adding lysis buffer to disrupt cells. Let lysis proceed for 30 min at 4° C.
Incubate for 1 hour at room temperature. Flick out the lysates. Wash 3 times with TBST. Add 75 μL of rabbit CBP or p300 antibody to each well (diluted 1:5000 in blocking buffer (5% BSA in TBST). CBP antibody: (D6C5) Rabbit mAb #7389; p300 antibody: (D8Z4E) Rabbit mAb #86377. Incubate overnight at 4° C. Wash 3 times with 300 uL TBST, each time on shaker for 5-10 min. Prepare goat anti-rabbit antibody conjugated to HRP (1/100K dilution in blocking buffer) Invitrogen Catalog number: 32260. Add 75 μL of HRP-conjugated goat anti-rabbit antibody. Incubate at room temperature for 1 hour. Flick out the HRP-antibody mixture. Wash 7-8 times with TBST, each time on shaker for 10 min. Later washes try to overflow the wells so that no residual HRP remains bound to the sides of the well. Prepare and add 75 uL/well of QuantaRed Enhance Chemifluorescent HRP Substrate solution. Immediately read fluorescence on BMG ClarioStar (ex: 570/em 585), and repeat the read in 5 minutes and 15 minutes.
Background: ELISA stands for enzyme-linked immunosorbent assay.

Molecule `COc1cc(OC2C(C)(C)C(NC(=O)c3ccc(N4CCC(N(C)C5CCC(n6nc(N7CCCc8cc(-c9cnn(C)c9)c(C(F)F)cc87)c7c6CCN(C(C)=O)C7)CC5)CC4)cc3)C2(C)C)ccc1C#N` (stereo not shown) [Compound 280, 4-[4-[[4-[5-acetyl-3-[7-(difluoromethyl)-6-(1-methylpyrazol-4-yl)-3,4-dihydro-2H-quinolin-1-yl]-6,7-dihydro-4H-pyrazolo[4,3-c]pyridin-1-yl]cyclohexyl]-methyl-amino]-1-piperidyl]-N-[3-(4-cyano-3-methoxy-phenoxy)-2,2,4,4-tetramethyl-cyclobutyl]benzamide] displayed an EC50 below 1 nM.
In turn, `CC(=O)N1CCc2c(c(N3CCCc4cc(-c5cnn(C)c5)c(C(F)F)cc43)nn2C2CCN(C(=O)C3CN(c4ncc(C(=O)NC5C(C)(C)C(Oc6ccc(C#N)c(Cl)c6)C5(C)C)cn4)C3)CC2)C1` (stereo not shown) [Compound 118, 2-[3-[4-[5-acetyl-3-[7-(difluoromethyl)-6-(1-methylpyrazol-4-yl)-3,4-dihydro-2H-quinolin-1-yl]-6,7-dihydro-4H-pyrazolo[4,3-c]pyridin-1-yl]piperidine-1-carbonyl]azetidin-1-yl]-N-[3-(3-chloro-4-cyano-phenoxy)-2,2,4,4-tetramethyl-cyclobutyl]pyrimidine-5-carboxamide] gave a concentration for a half-maximal effect (EC50) above 100 nM.
`CC(=O)N1CCc2c(c(N3CCCc4cc(-c5cnn(C)c5)c(C(F)F)cc43)nn2C2CN(CCC3CCN(c4ncc(C(=O)NC5C(C)(C)C(Oc6ccc(C#N)c(Cl)c6)C5(C)C)cn4)CC3)C2)C1` (stereo not shown) [Compound 162, 2-[4-[2-[3-[5-acetyl-3-[7-(difluoromethyl)-6-(1-methylpyrazol-4-yl)-3,4-dihydro-2H-quinolin-1-yl]-6,7-dihydro-4H-pyrazolo[4,3-c]pyridin-1-yl]azetidin-1-yl]ethyl]-1-piperidyl]-N-[3-(3-chloro-4-cyano-phenoxy)-2,2,4,4-tetramethyl-cyclobutyl]pyrimidine-5-carboxamide] displayed an EC50 below 1 nM.
Then `CC(=O)N1CCc2c(c(N3CCCc4cc(-c5cnco5)c(C(F)F)cc43)nn2C2CCN(CC3C(C)CN(c4ncc(C(=O)NC5C(C)(C)C(Oc6ccc(C#N)c(Cl)c6)C5(C)C)cn4)CC3C)CC2)C1` (stereo not shown) [Compound 424, 2-[4-[[4-[5-acetyl-3-[7-(difluoromethyl)-6-oxazol-5-yl-3,4-dihydro-2H-quinolin-1-yl]-6,7-dihydro-4H-pyrazolo[4,3-c]pyridin-1-yl]-1-piperidyl]methyl]-3,5-dimethyl-1-piperidyl]-N-[3-(3-chloro-4-cyano-phenoxy)-2,2,4,4-tetramethyl-cyclobutyl]pyrimidine-5-carboxamide], with below 1 nM; and `CC(=O)N1CCc2c(c(-c3cccc4cc(-c5ccc(COCC6CCN(c7ncc(C(=O)NC8C(C)(C)C(Oc9ccc(C#N)c(Cl)c9)C8(C)C)cn7)CC6)nc5)ncc34)nn2C2CCOCC2)C1` (stereo not shown) [Compound 143, 2-[4-[[5-[8-(5-acetyl-1-tetrahydropyran-4-yl-6,7-dihydro-4H-pyrazolo[4,3-c]pyridin-3-yl)-3-isoquinolyl]-2-pyridyl]methoxymethyl]-1-piperidyl]-N-[3-(3-chloro-4-cyano-phenoxy)-2,2,4,4-tetramethyl-cyclobutyl]pyrimidine-5-carboxamide], with below 1 nM.
As for `CC(=O)N1CCc2c(c(N3CCCc4cc(-c5cnn(C)c5)c(C(F)F)cc43)nn2C2CCN(C3CCC4(C3)CN(c3ncc(C(=O)NC5C(C)(C)C(Oc6ccc(C#N)c(Cl)c6)C5(C)C)cn3)C4)CC2)C1` (stereo not shown) [Compound 344, 2-[6-[4-[5-acetyl-3-[7-(difluoromethyl)-6-(1-methylpyrazol-4-yl)-3,4-dihydro-2H-quinolin-1-yl]-6,7-dihydro-4H-pyrazolo[4,3-c]pyridin-1-yl]-1-piperidyl]-2-azaspiro[3.4]octan-2-yl]-N-[3-(3-chloro-4-cyano-phenoxy)-2,2,4,4-tetramethyl-cyclobutyl]pyrimidine-5-carboxamide], the EC50 was below 1 nM.
Then `CC(=O)N1CCc2c(c(N3CCCc4cc(-c5cnn(C)c5)c(C(F)F)cc43)nn2C2CCC(OC3CN(c4ncc(C(=O)NC5C(C)(C)C(Oc6ccc(C#N)c(Cl)c6)C5(C)C)cn4)C3)CC2)C1` (stereo not shown) [Compound 340, 2-[3-[4-[5-acetyl-3-[7-(difluoromethyl)-6-(1-methylpyrazol-4-yl)-3,4-dihydro-2H-quinolin-1-yl]-6,7-dihydro-4H-pyrazolo[4,3-c]pyridin-1-yl]cyclohexoxy]azetidin-1-yl]-N-[3-(3-chloro-4-cyano-phenoxy)-2,2,4,4-tetramethyl-cyclobutyl]pyrimidine-5-carboxamide], with below 1 nM.
The figure for `CC(=O)N1CCc2c(c(-c3cccc4cc(-c5ccc(C(=O)N6CCC(OCc7ncc(C(=O)NC8C(C)(C)C(Oc9ccc(C#N)c(Cl)c9)C8(C)C)cn7)C6)nc5)ncc34)nn2C2CCOCC2)C1` (racemic) [Compound 131, N-[3-(3-chloro-4-cyano-phenoxy)-2,2,4,4-tetramethyl-cyclobutyl]-2-[[rac-(3S)-1-[5-[8-(5-acetyl-1-tetrahydropyran-4-yl-6,7-dihydro-4H-pyrazolo[4,3-c]pyridin-3-yl)-3-isoquinolyl]pyridine-2-carbonyl]pyrrolidin-3-yl]oxymethyl]pyrimidine-5-carboxamide] is below 1 nM; for `CC(=O)N1CCc2c(c(N3CCCc4cc(-c5cnn(C)c5)c(C(F)F)cc43)nn2C2CCC(N3CCN(c4ncc(C(=O)NC5C(C)(C)C(Oc6ccc(C#N)c(Cl)c6)C5(C)C)cn4)CC3)CC2)C1` (stereo not shown) [Compound 391, 2-[4-[4-[5-acetyl-3-[7-(difluoromethyl)-6-(1-methylpyrazol-4-yl)-3,4-dihydro-2H-quinolin-1-yl]-6,7-dihydro-4H-pyrazolo[4,3-c]pyridin-1-yl]cyclohexyl]piperazin-1-yl]-N-[3-(3-chloro-4-cyano-phenoxy)-2,2,4,4-tetramethyl-cyclobutyl]pyrimidine-5-carboxamide] it is below 1 nM; for `COc1cc(OC2C(C)(C)C(NC(=O)c3ccc(N4CC(C)C(CN5CCC(n6nc(-c7cccc8cc(-c9cnn(C)c9)ncc78)c7c6CCN(C(C)=O)C7)CC5)C(C)C4)cc3)C2(C)C)ccc1C#N` (stereo not shown) [Compound 441, 4-[4-[[4-[5-acetyl-3-[3-(1-methylpyrazol-4-yl)-8-isoquinolyl]-6,7-dihydro-4H-pyrazolo[4,3-c]pyridin-1-yl]-1-piperidyl]methyl]-3,5-dimethyl-1-piperidyl]-N-[3-(4-cyano-3-methoxy-phenoxy)-2,2,4,4-tetramethyl-cyclobutyl]benzamide] it is below 1 nM.
Then `COc1cc(OC2C(C)(C)C(NC(=O)c3ccc(OC4CCC(N5CCC(n6nc(N7CCCc8cc(-c9cnn(C)c9)c(C(F)F)cc87)c7c6CCN(C(C)=O)C7)CC5)CC4)cc3)C2(C)C)ccc1C#N` (stereo not shown) [Compound 381, 4-[4-[4-[5-acetyl-3-[7-(difluoromethyl)-6-(1-methylpyrazol-4-yl)-3,4-dihydro-2H-quinolin-1-yl]-6,7-dihydro-4H-pyrazolo[4,3-c]pyridin-1-yl]-1-piperidyl]cyclohexoxy]-N-[3-(4-cyano-3-methoxy-phenoxy)-2,2,4,4-tetramethyl-cyclobutyl]benzamide], with below 1 nM.
`CC(=O)N1CCc2c(c(Nc3ccc(-c4cnn(C)c4)cc3F)nn2C2CCN(C3CCN(c4ncc(C(=O)NC5C(C)(C)C(Oc6ccc(C#N)c(Cl)c6)C5(C)C)cn4)CC3)C2)C1` (stereo not shown) [Compound 8, 2-[4-[3-[5-acetyl-3-[2-fluoro-4-(1-methylpyrazol-4-yl)anilino]-6,7-dihydro-4H-pyrazolo[4,3-c]pyridin-1-yl]pyrrolidin-1-yl]-1-piperidyl]-N-[3-(3-chloro-4-cyano-phenoxy)-2,2,4,4-tetramethyl-cyclobutyl]pyrimidine-5-carboxamide]: the EC50 is above 100 nM.
The figure for `CC(=O)N1CCc2c(c(N3CCCc4cc(-c5cnn(C)c5)c(C(F)F)cc43)nn2C2CN(C(=O)CC3CCN(c4ncc(C(=O)NC5C(C)(C)C(Oc6ccc(C#N)c(Cl)c6)C5(C)C)cn4)CC3)C2)C1` (stereo not shown) [Compound 163, 2-[4-[2-[3-[5-acetyl-3-[7-(difluoromethyl)-6-(1-methylpyrazol-4-yl)-3,4-dihydro-2H-quinolin-1-yl]-6,7-dihydro-4H-pyrazolo[4,3-c]pyridin-1-yl]azetidin-1-yl]-2-oxo-ethyl]-1-piperidyl]-N-[3-(3-chloro-4-cyano-phenoxy)-2,2,4,4-tetramethyl-cyclobutyl]pyrimidine-5-carboxamide] is below 1 nM.
